In this assay the test system is H1N1 virus. Particulars: pH 4.9.

Where a SMILES comes first, the peptide text is derived from it.

Consider `CC[C@H](C)[C@H](NC(=O)[C@H](C)NC(=O)CNC(=O)[C@@H](N)CC(N)=O)C(=O)N[C@@H](CS)C(=O)N[C@@H](Cc1c[nH]c2ccccc12)C(=O)NCC(=O)N1CCC[C@H]1C(=O)N[C@@H](CS)C(=O)N1CCC[C@H]1C(=O)N[C@H](C(=O)N[C@@H](C)C(=O)N[C@@H](Cc1ccccc1)C(=O)N[C@@H](CCCNC(=N)N)C(=O)N[C@@H](CCC(N)=O)C(=O)N[C@H](C(=O)NCC(=O)N[C@@H](CC(N)=O)C(=O)N[C@@H](CS)C(=O)NCC(=O)N[C@@H](CCCNC(=N)N)C(=O)N[C@@H](Cc1ccccc1)C(=O)N[C@@H](CCCNC(=N)N)C(=O)N[C@H](C(=O)N[C@@H](CCCNC(=N)N)C(=O)N[C@@H](CS)C(=O)N[C@@H](CS)C(=O)N[C@@H](CCCNC(=N)N)C(=O)N[C@H](C(=O)N[C@@H](CCCNC(=N)N)C(=O)O)[C@@H](C)CC)C(C)C)[C@@H](C)CC)[C@@H](C)O` [P9R] (H-NGAICWGPCPTAFRQIGNCGRFRVRCCRIR-OH), for which the “inhibition of viral fusion (virus-induced hemolysis)” value was “did not inhibit viral fusion”.

For the origin of these results see paper PMC7447754 (Nature Communications, 2020).
